# Patent US11198710B2, “Transgenic plant having herbicide resistance” (priority 2016, dated 2021)
# What was measured:
# [1] = tested on: wild-type Arabidopsis thaliana plant (Columbia-0); assay: Sensitivity of wild-type Arabidopsis thaliana to herbicides on MS agar medium; assay type: in vivo; conditions: 22° C., 14 days
# Procedure: (§1) A medium was prepared as described below, so as to examine the pyroxasulfone resistance of the Arabidopsis thaliana plant comprising the TaQ8GTC0 gene introduced therein. At the outset, the Murashige-Skoog (MS) media (1 bag), thiamin hydrochloride (3 mg), nicotinic acid (5 mg), pyridoxin hydrochloride (0.5 mg), and sucrose (10 g) were added into a 1-liter beaker, a pH was adjusted to 5.7, the volume of the content was adjusted to 1 liter, and 8 g (0.8%) of agar was added. The resultant was autoclaved and cooled to room temperature, and pyroxasulfone (an acetone solution) was added thereto. A 30-ml fraction thereof was fractionated into a No. 2 square plate to prepare an MS medium containing pyroxasulfone at a given concentration.
# Pyroxasulfone sensitivity of transgenic Arabidopsis thaliana plants was tested with the use of the medium prepared above as described below. A necessary amount of Arabidopsis thaliana dry seeds was agitated in 70% ethanol for 2 minutes and in hypochlorous acid containing 0.02% Triton-X-100 for 15 minutes, followed by washing with sterile water 10 times. Subsequently, the seeds were suspended in 1 ml of the autoclaved 0.1% agar solution, the suspension was thoroughly mixed to prepare a homogeneous solution, and a total of 30 seeds were each placed on the medium surface. […]
# [2] = tested on: Arabidopsis thaliana plant comprising the TaQ8GTC0 gene introduced therein; assay: Sensitivity of Arabidopsis thaliana comprising the TaQ8GTC0 gene to herbicides on MS agar medium; assay type: in vivo; conditions: for growth of the Arabidopsis thaliana plant comprising the TaQ8GTC0 gene: KLB-718 1-1-5, 22° C.
# Procedure: as §1
# Pyroxasulfone sensitivity of transgenic Arabidopsis thaliana plants was tested with the use of the medium prepared above as described below. A necessary amount of Arabidopsis thaliana dry seeds was agitated in 70% ethanol for 2 minutes and in hypochlorous acid containing 0.02% Triton-X-100 for 15 minutes, followed by washing with sterile water 10 times. Subsequently, the seeds were suspended in 1 ml of the autoclaved 0.1% agar solution, the suspension was thoroughly mixed to prepare a homogeneous solution, and a total of 30 seeds were each placed on the medium surface. The resultant was sealed with a surgical tape, allowed to stand at 4° C. for 2 days, and then transferred to 22° C. for germination.
# On the basis of the concentrations above, sensitivity of the Arabidopsis thaliana plant comprising the TaQ8GTC0 gene introduced therein to VLCFAE-inhibiting herbicides was examined. The results are show in FIGS. 13 and 14. The photographs shown in FIGS. 13 and 14 were taken after the plants were grown at 22° C. for 14 days.
# [3] = tested on: OsGSTF5; assay: Pyroxasulfone metabolizing activity based on fatty acid content in cultured rice cells; assay type: cell-based; conditions: cultured rice cells with OsGSTF5 gene; 10^−6 M treatment group
# Procedure: (§2) The transgenic cultured rice cells thus prepared were used for liquid culture in the presence of pyroxasulfone. Pyroxasulfone was added to the liquid medium as an acetone solution. The final acetone concentration was 0.1%. When liquid culture was carried out, cultured rice cells transformed with KLB-279 (a plasmid comprising Act1p (rice actin 1 promoter)::sGFP::NOSt incorporated into the MCS of PalSelect R-4) were designated as the control samples. Liquid culture was carried out as described below. […]
# (§3) Fatty acid was extracted using undecenoic acid (C11:1) as an internal standard. As analytical standards, Supelco FAME mix containing C14:0, C16:0, C16:1, C18:0, C18:1, C18:2, C18:3, C20:0, C22:0, C22:1, and C24:0 and other fatty acid methyl esters (C11:1, C15:0, C20:1, and C26:0) were used, and calibration curves thereof were prepared, followed by quantification. […] Quantitative and qualitative analyses were carried out as methyl esters, although fatty acid methyl esters were converted into fatty acids at the time of quantitative analysis. […]
# [4] = tested on: OsGSTU5; assay: as above; assay type: cell-based; conditions: cultured rice cells with OsGSTU5 gene; 10^−6 M treatment group
# Procedure: as §2, §3
compound,measurement,setting,value
"Cn1nc(C(F)(F)F)c(CS(=O)(=O)C2=NOC(C)(C)C2)c1OC(F)F [Pyroxasulfone, 3-[5-(difluoromethoxy)-1-methyl-3-(trifluoromethyl)pyrazol-4-ylmethylsulfonyl]-4,5-dihydro-5,5-dimethyl-1,2-oxazole]",pyroxasulfone concentration at which growth was substantially completely inhibited,[1],≥ 1 µM
same,growth of the wild-type Arabidopsis thaliana plant,[1]; pyroxasulfone 100 nM,inhibited to some extent
same,sensitivity of the Arabidopsis thaliana plant comprising the TaQ8GTC0 gene to VLCFAE-inhibiting herbicides,"[2]; KLB-718 1-1-5, concentrations of Table 5, 22° C., 14 days",strong resistance
same,pyroxasulfone resistance relative to wild-type (Columbia-0),[2]; all 7 lines used in the test,at least 10 times
same,growth of the Arabidopsis thaliana plant comprising the TaQ8GTC0 gene,"[2]; pyroxasulfone 1 μM, 14 days",in the same manner as with the Control
same,growth of the Arabidopsis thaliana plant comprising the TaQ8GTC0 gene,"[2]; pyroxasulfone 10 μM, 14 days",sufficiently grew
same,pyroxasulfone metabolizing activity (C15:0 and VLCFA contents),[3],no pyroxasulfone metabolizing activity
same,pyroxasulfone metabolizing activity (C15:0 and VLCFA contents),[4],no pyroxasulfone metabolizing activity
